Data on 81 compounds can be found in the METLIN SMRT retention time set (Domingo-Almenara et al. 2019).

Molecules are shown by their SMILES.

A short description of this data set: gradient 5% acetonitrile 3 min, to 50% in 2 min, to 85% in 15 min, held 3 min, 100 µL/min. The following applies: column: Zorbax Extend-C18 2.1 x 50 mm; eluents: water / acetonitrile, 0.1% formic acid. The method, boiled down:
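Pure standards were run in mixtures of ~100 molecules by HPLC coupled to a quadrupole time-of-flight mass spectrometer. The column was a Zorbax Extend-C18 (2.1 × 50 mm, 1.8 μm) at 100 μL/min, with water and acetonitrile each containing 0.1% formic acid, in positive and negative ionization mode. Dead and dwell volumes were 40 μL and 900 μL. Retention time was taken from computationally picked adduct peaks, each manually inspected, with data collected over 3 months.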
In the case of `Cc1ccc(CNC(=O)CN2C(=O)CCn3nc(-c4cn(C)c5ccccc45)cc32)o1`, the RP-LC retention time is 806 s. The compound `Cc1cc(=O)n(CC(=O)N2CCc3ccccc32)c(N2CCc3ccccc3C2)n1` came in with an RP-LC retention time of 825 s. For `Cc1ccc(-c2noc(-c3ccccc3S(=O)(=O)N3CCN(c4ncccn4)CC3)n2)cc1` the value was 1160 s; for `Cc1ccc(N2C(=O)C3N=NN(Cc4nc(-c5ccccc5)no4)C3C2=O)cc1` (stereo unspecified), 975 s; for `CN1c2cc(C(=O)NCc3ccc(OC(F)(F)F)cc3)ccc2C(=O)N2CCCCC21` (stereo unspecified), 932 s.

On to `CCN(C(=O)c1cccc(F)c1)c1nc(-c2ccccc2)cs1`, for which the RP-LC retention time worked out at 1230 s.

In the case of `CCn1c(CN2CCN(S(C)(=O)=O)CC2)nc2cc(NC(=O)CC(C)C)ccc21`, the RP-LC retention time turned out to be 630 s. On to `Cn1c(SCC(=O)N2CCCc3ccccc32)nc2cc(-c3ccccc3)sc2c1=O`, for which the RP-LC retention time came out at 1180 s. The value for `C=CCSC(CC)(CC)C(N)=O` was 805 s; that for `O=C1C(O)=C(S(=O)(=O)c2ccccc2)C(c2ccccc2)N1Cc1ccccc1` (stereo unspecified) was 947 s.

For the compound `O=C(COc1ncccn1)Nc1ccc(F)c(F)c1`, the RP-LC retention time worked out at 665 s. For `O=C1CCCCC(Cc2ccccc2)(C(=O)NCCc2ccccc2)N1` (stereo unspecified) the value was 806 s. Take `O=C(CC1CCCC1)Nc1ccc2c(c1)CCC(=O)N2`: the RP-LC retention time turned out to be 684 s. In the case of `O=C(c1cocn1)N1CC(F)(F)C[C@H]1c1nnc(-c2ccncc2)o1`, the RP-LC retention time was found to be 638 s. The value for `Cc1ccccc1-c1nnc(CSc2nnc(NC(=O)c3ccccc3C(F)(F)F)s2)o1` was 972 s; that for `CCCCN(C)C(=O)c1sc(Nc2ccccn2)nc1C` was 777 s. For `Cc1ccc(NC(=O)CN2C(=O)NC3(CCCCC3)C2=O)cc1F` the value was 798 s; for `Cc1occc1-c1nnc(SCC(=O)N2CCCc3ccccc32)o1`, 962 s; for `COc1cc2c(cc1Cc1cccc(Cl)c1F)c(=O)c(C(=O)O)cn2[C@H](CO)C(C)C`, 1090 s.

`CC(C(=O)NC1CCSC1=O)n1nc(-n2cccn2)ccc1=O` (stereo unspecified) gave an RP-LC retention time of 616 s. The value for `COc1cc(C(=O)Nc2c(-c3ccccc3)nc3ccccn23)cc(OC)c1OC` was 636 s; that for `O=S(=O)(c1ccc(F)cc1F)N1CCCC(Cn2c(C3CC3)nc3cccnc32)C1` (stereo unspecified) was 766 s; that for `CCC(C)(C)C(=O)NC1CCN(c2cnn(CC3CC3)c(=O)c2)CC1` was 664 s. The value for `CC(C)CNC(=O)C1CCCN(c2ccnc(-c3ccc(F)cc3)n2)C1` (stereo unspecified) was 659 s; that for `CCn1c(C(=O)Nc2cc(C)ccc2C)cc2sc(Cl)cc21` was 1230 s. The value for `CCS(=O)(=O)N1CC(=O)N(c2ccccc2C)C(C)(C(=O)NC2CCCCCCC2)C1` (stereo unspecified) was 951 s.

`O=C(NCCN1CCCCC1)c1ccc(-c2ccc(N3CCSCC3)nc2)cc1`: the RP-LC retention time was found to be 591 s. As for `Cc1cc(C(=O)Nc2c(F)cc(F)cc2Br)n(-c2ccccc2)n1`, the RP-LC retention time came to 884 s.

With `Cc1ccc(C(=O)N2C[C@@H](Oc3ccccc3)C[C@H]2C(=O)NC2CC2)s1`, the RP-LC retention time was determined as 790 s. For the compound `CCn1cc(-c2nc(C)c(C(=O)Nc3ccccc3OC)s2)c2cccnc21`, the RP-LC retention time amounted to 1120 s.

Compound `C=CCc1ccc(OCC(O)CN2C(C)CCCC2C)c(OC)c1` (stereo unspecified) registered an RP-LC retention time of 603 s. As for `CCOc1ccc(OCC)c(S(=O)(=O)Nc2ccc(-c3cn4ccc(C)nc4n3)cc2)c1`, the RP-LC retention time was 697 s.

The compound `Cc1cccc(CNS(=O)(=O)c2cn(CC(C)C)c3ncccc23)c1` returned an RP-LC retention time of 993 s. For `O=c1n(Cc2ccc(F)cc2Cl)nc2ccc(S(=O)(=O)N3CCOCC3)cn12` the value was 863 s; for `CC1CCN(C(=O)C2=CN(c3ccc(F)cc3)c3ccccc3S2(=O)=O)CC1`, 907 s; for `CCOc1ccc(C2Cn3nnc(-c4nc(-c5ccc(C(F)(F)F)cc5)no4)c3CO2)cc1` (stereo unspecified), 1340 s.

In turn, `CCN(c1ccccc1F)S(=O)(=O)c1cc2n(c1)CCCN(C)C2=O` returned an RP-LC retention time of 780 s. For `Nc1nc(N2CCN(c3ccccc3F)CC2)ncc1C(=O)Nc1ccccc1` the value was 821 s; for `COc1cc(OC)c(NS(=O)(=O)c2cc(-c3cc(C(F)(F)F)[nH]n3)sc2C)cc1Cl`, 1020 s.

The compound `CC(C)CCn1nc2ccc(S(=O)(=O)N3CCOCC3)cn2c1=O` displayed an RP-LC retention time of 801 s.

In turn, `CN(C)CC(=O)N1CCC(Oc2nccnc2N(C)C)C1` (stereo unspecified) yielded an RP-LC retention time of 539 s.

Take `COc1ccc(CC(=O)N2CCC(n3cnnc3C3CC3)CC2)cc1Cl`: the RP-LC retention time is 658 s.

For `CCOc1ccccc1NC(=O)Cn1nc2c3sc(N(C)C)nc3ncn2c1=O`, the RP-LC retention time was determined as 724 s. On to `CCc1nc(N)n(CC(=O)Nc2ccc(OC)cc2)c(=O)c1C`, for which the RP-LC retention time came out at 650 s. For the compound `Cc1ccc(NC(=O)Nc2ccc(NC(=O)N3CCC(C(=O)NCC4CC4)CC3)cc2)cc1`, the RP-LC retention time was found to be 740 s. For `CCOc1ccc(-c2nc(C3CC(=O)N(c4ccc(OC)cc4)C3)no2)cc1` (stereo unspecified) the value was 1010 s. The value for `O=S(=O)(c1cccs1)N1CC(c2nc(-c3ccncc3)no2)C1` was 679 s; that for `COCc1cc(=O)n(CC(=O)Nc2cccc(C)c2C)c(N)n1` was 602 s. On to `O=C(Nc1cccc(Cl)c1)C1CCN(S(=O)(=O)c2ccc3[nH]c(=O)ccc3c2)CC1`, for which the RP-LC retention time worked out at 808 s.

On to `COc1cc(-c2noc(C3CC(=O)N(c4ccc(C(C)C)cc4)C3)n2)cc(OC)c1OC` (stereo unspecified), for which the RP-LC retention time was found to be 605 s. The value for `COCc1c(C(=O)O)nnn1-c1ccc2c(c1)OCCO2` was 666 s.

`CCn1c(=O)sc2cc(S(=O)(=O)N3CCC(C(=O)Nc4ccc(C)c(Cl)c4)CC3)ccc21` registered an RP-LC retention time of 905 s. The value for `CC1CCc2nn(CC(=O)Nc3ccc(F)cc3F)cc2C1` (stereo unspecified) was 875 s; that for `CN1CCCc2cc(C(CNC(=O)C(=O)Nc3ccc4c(c3)OCCO4)N3CCCC3)ccc21` (stereo unspecified) was 718 s. The value for `Cc1nc(-c2cn(C(C)C)c3ncccc23)sc1C(=O)NCCN1CCOCC1` was 630 s; that for `CC(=O)c1ccc(NC(=O)c2cnn3c4c(cnc23)CCCCCC4)cc1` was 1060 s. The compound `CN1C(=O)c2cc(S(=O)(=O)Nc3cc(F)cc(F)c3)ccc2Oc2cccnc21` registered an RP-LC retention time of 936 s. For `CC(=O)N1CCCCC1c1nc(-c2cccnc2)no1` (stereo unspecified) the value was 663 s; for `Cc1nnc(N2CCCC(C(=O)N3CCC4(CC3)OCCO4)C2)c2nn(-c3ccccc3)c(C)c12` (stereo unspecified), 660 s.

The compound `CCOc1ccc(NC(=O)c2noc3c2CCCC3)cc1` gave an RP-LC retention time of 958 s. For `CCNC(=O)c1nnn(-c2cc(C(F)(F)F)ccc2Cl)c1-c1cccnc1` the value was 796 s; for `CCN(CC)c1ncc2c(n1)CCC(C(=O)Nc1ccc(OC)c(OC)c1)C2` (stereo unspecified), 660 s; for `CCn1ccc(NC(=O)c2cc(C)ccc2C)n1`, 733 s. For `CCN1CCN(C(=O)C2CCCN(S(=O)(=O)c3ccc(OC)c(C)c3)C2)CC1` (stereo unspecified) the value was 636 s. The value for `Cc1nc2ccn(Cc3ccco3)c(=O)c2cc1C(=O)NC1CCCC1` was 723 s; that for `Cc1ccc(CNC(=O)C2CCCN(c3cc(=O)n(C)c(=O)n3C)C2)cc1` (stereo unspecified) was 701 s; that for `O=C(NC1CCCC1)c1nc(Cn2c(=O)oc3ccc(Cl)cc32)no1` was 931 s. `O=S(=O)(Cc1cccc(F)c1)NCC1CCN(Cc2ccsc2)CC1` came in with an RP-LC retention time of 578 s. As for `O=C(NCCCc1ccccc1)C1CCN(c2cnn(Cc3ccccc3)c(=O)c2)CC1`, the RP-LC retention time was found to be 818 s. The value for `CCCN(CC1CCOC1)S(=O)(=O)c1ccc(C)c(Cl)c1` (stereo unspecified) was 1050 s. The value for `O=C(Cc1ccc(F)cc1)N1CCC2(CC1)N=C(c1ccccc1)NO2` was 792 s. `CCN(Cc1ccc(C)cc1)Cc1cc(=O)n2ccc(C)cc2n1` showed an RP-LC retention time of 628 s. The compound `CCCn1cc(S(=O)(=O)Nc2cccc(F)c2)c2cccnc21` showed an RP-LC retention time of 883 s.

The compound `CC(C)CN1C(=O)c2cccn2CC1C(=O)N1CCOCC1` (stereo unspecified) registered an RP-LC retention time of 624 s. `CCN(CC)c1ccc(-c2noc(CN3CCSCC3)n2)cn1` had an RP-LC retention time of 651 s. Regarding `O=C(C1CCN(S(=O)(=O)Cc2ccc(Cl)cc2)CC1)N1CCOCC1`, the RP-LC retention time stood at 725 s. The value for `CCOC(=O)c1c(C)oc(C)c(C(=O)OCC)c1=O` was 780 s; that for `CCCOC(=O)c1cccc(Nc2nc(-c3cccnc3)nc3ccccc23)c1` was 889 s; that for `COc1ccc(-c2nc3n(n2)C2(CCCCC2)[C@@H]2CCCC[C@@H]2N3C(=O)c2ccco2)cc1` was 1380 s.

Regarding `Cc1nnc(N2CCCC(C(=O)NCc3ccc(F)cc3)C2)c2nn(-c3ccc(Cl)cc3)c(C)c12` (stereo unspecified), the RP-LC retention time is 771 s. In turn, `CCCOc1nccnc1NC1CCN(C(=O)c2ccsc2)CC1` registered an RP-LC retention time of 713 s.
